Data on two molecules can be found in patent publication US20070134185A1, “Use of dithiols in a hair-perming composition” (priority 2003, published 2007).

For series [1] the following is noted: cited from earlier work.
Series [2] can be described thus: Permanent waving of hair locks with reducing lotion. The following applies: reducing lotion 20.83 g Compound A1 per 100 g, pH = 7, 15 minutes on curled hair, fixing with hydrogen peroxide at 8 volumes pH=3. On the procedure: A reducing lotion is prepared:
The above lotion is applied to locks of grey hair which is 90% white. Curls are produced using curlers. The lotion is allowed to act on the curled hair for 15 minutes. The hair is rinsed with water. A conventional fixing composition based on hydrogen peroxide (hydrogen peroxide at 8 volumes, pH=3), is applied. Another rinsing is carried out. The curlers are removed.

A short description of series [3]: Oxidation dyeing of permanently waved hair. The conditions noted are these: compared with identical permanent waving with thioglycolic acid instead of A1, at equivalent curliness.

In the case of `O=S(=O)(CCS)CCS` [BMS, bis(2-mercaptoethyl)sulphone], the solubility in water entry in series [1] was “very sparingly soluble in water”. Turning to `CN(C(=O)CS)N(C)C(=O)CS` [Compound A1], the curliness result in series [2] was “Good curliness”. The “colour after 7.44 CRESCENDO oxidation dye on permanently waved hair” value in series [3] is “closer to that obtained on non-permanently waved hair”.
